Measured values taken from US20080299270A1, “Fat Taste Receptors and Their Methods of Use” (NESTEC S.A., priority 2005, published 2008).

Tested on: GPR40
Assay: two-bottle preference test of fat emulsions, GPR40 knockout vs normal mice
Assay type: in vivo, mouse
Settings: GPR40 knockout mice compared to control mice; fat emulsion vs vehicle only, two drinking bottles
Excerpt: A preference ratio of 0.5 indicates indifference, above 0.5 indicates preference and below 0.5 indicates avoidance. Both preference and intake of fat are diminished in the GPR40 KO mice compared to control mice. The stars show the concentrations of lipids at which the differences of intake or preference between knockout and control mice are statistically significant. […] The fat emulsions contained corn oil, Intralipid, lauric acid or oleic acid. When compared with normal mice, the knockout animals drank less fat. […] Because mice can still detect fat in the absence of GPR40, another receptor, probably GPR120, must also play a role in fat taste signaling.

Row | Structure (SMILES) | intake of fat emulsion | preference for fat emulsion
1 | CCCCCCCCCCCC(=O)O [lauric acid] | diminished | diminished
2 | CCCCCCCC/C=C\CCCCCCCC(=O)O [oleic acid] | diminished | diminished
